Measurements reported in patent publication US4740505A, “Pyridazinyloxy (or thio) phenyl phosphates” (priority 1985, dated 1988).
Like-named read-outs stand apart in the source and are kept apart here.

Legend:
Tetranychus urticae = experiment: Effectiveness on Tetranychus urticae (rating of effects on kidney bean seedlings); type: in vivo; conditions: 500 ppm, 20 ml, rating based on percent decrease; for Rating of effect Day-2: 2nd day after treatment; for Rating of effect Day-7: 7th day after treatment
Experimental: Effectiveness on Tetranychus urticae
Each of the compounds listed in the following table is processed into an emulsifiable concentrate in accordance with the formulation of Example 6. The emulsifiable concentrate is diluted with water (Dyne®, a spreading agent produced by Takeda Chemical Ind. Ltd., as diluted 3,000-fold) to prepare a 500 ppm aqueous solution. Ten female adult of Tetranychus urticae are put into each kidney been seedling raised in a jiffy pot (6 cm in diameter), and left in a glass house at 28° C. for 24 hours. Each pot is taken out of the glass house; 20 ml of the aqueous solution as prepared above is spread over each kidney bean seedling. The jiffy pots are laid in the glass house again. Larvae and adult which are alive on the leaves are counted at the 2nd and 7th days after the spreading treatment. The test is repeated two times. The degrees are determined on the basis of percent decrease.

Spodoptera litura = experiment: Effectiveness on Spodoptera litura (mortality of 3rd instar larvae on sprayed soybean leaves); type: in vivo
Experimental: Effectiveness of Spondoptera litura
Each of the test compounds listed in the following table is processed into an emulsifiable concentrate in accordance with the formulation of Example 6. The emulsifiable concentrate is diluted with water (Dyne®, a spreading agent produced by Takeda Chemical Ind. Ltd., as diluted 3,000-fold) to prepare a 100 ppm aqueous solution.
Using a spray gun (nozzle pressure of 1 kg/cm^2 gauge), 20 ml of the aqueous 100 ppm solution is sprayed over soybean seedlings in a spraying chamber (on 10th day after germination) which have been raised in jiffy pots (6 cm in diameter). Two main leaves are respectively cut off from the seedlings 2 hours and 6 days after the spraying. Each of the leaves is put into an ice cream cup (diameter: 6 cm, depth: 4 cm), and 10 larvae of Spodoptera litura at the 3rd instar are put into each of the cups. The cups are left in a room at 25° C.; after 48 hours, dead larvae are counted. The test is repeated two times. The results are shown in terms of mortality (%) in Table 6. [formula]
The following compounds are used for controls.
The same compounds are used for controls also in the following Test Examples.

[1] = Toxicological test: oral acute toxicity in mice; set-up: species or system mice (ddY-SLC strained male); conditions: mouse, in vivo, five-week aged ddY-SLC male mice
[2] = 100 ppm spray, leaves cut 6 days after spraying, dead larvae counted after 48 hours, 25° C., read-out: Mortality 6th day after spraying
[3] = 48 h, read-out: Mortality 2 hours after spraying

Row | Compound | Rating of effect Day-2 (Tetranychus urticae) | Rating of effect Day-7 (Tetranychus urticae) | mortality at 100 ppm (Spodoptera litura; [2]) [%] | mortality at 100 ppm (Spodoptera litura; [3]) [%] | LD50 [1] [mg/kg]
1 | CCCSP(=S)(OCC)Oc1ccccc1Oc1ccc(Br)nn1 (stereo not shown) [compound 25] | 3 (≥90) | 3 (≥90) | 100 | 100 | > 300
2 | CCCSP(=O)(OCC)Oc1ccccc1Sc1ccc(Br)nn1 (stereo not shown) [compound 26] | 3 (≥90) | 3 (≥90) | 95 | 100 | ~300
3 | CCCSP(=S)(OCC)Oc1ccccc1Oc1ccc(C)nn1 (stereo not shown) [compound 38] | 3 (≥90) | 3 (≥90) | 100 | 100 | > 300
4 | CCCSP(=O)(OCC)Oc1ccccc1Oc1ccc(SCC)nn1 (stereo not shown) [compound 41] | 3 (≥90) | 3 (≥90) | 100 | 100 | ~300
5 | CCCSP(=S)(OCC)Oc1ccccc1Oc1ccc(SCC)nn1 (stereo not shown) [compound 42] | 3 (≥90) | 3 (≥90) | 100 | 100 | > 300
